This note sets out measurements from patent US20180221438A1, “MODULATING URACIL-DNA GLYCOSYLASE AND USES THEREOF” (Adaerata Limited Partnership, priority 2015, published 2018).

Each structure is given as a SMILES string.

Format in all cases: cell-based
Series [1] concerns Primary B cells from AID UNG double deficient mice. Particulars: 1 nM DidB, 72 h, AID-ires-GFP vs GFP alone or AIDE58A. How it is done: Primary B cells were harvested from AID UNG double deficient mice and cultured with anti-CD180, IL-4 and LPS. […] 24 h post infection, cells were treated with either DMSO vehicle or 1 nM of the EEF1A inhibitor DidB. Toxicity was measured after 72 h as the % difference of GFP+ cells in the DidB-treated culture compared to DMSO control. Data from two mice are averaged, bars are SEM.

Series [2] concerns B cells from wt or UNG−/− mice. As to the kind of experiment: B cell expansion by cell count after DidB treatment. Particulars: cells counted 48 h post-treatment, LPS and IL-4. On the procedure:
(§1) B cells were purified from wt or UNG−/− mice, and cultured directly with LPS and IL-4 and were counted 48 h post-treatment in order to measure B cell expansion (FIG. 14B); or after loading with the CFSE dye and cell divisions for treated cells were measured by analyzing the dilution of CFSE dye at 24 h post-treatment. Dilution of CFSE in cells is proportional to proliferation (FIGS. 14C-D).
(§2) 24 h later, cells were treated with either DMSO or DidB.

Series [3] has as its system B cells from wt or UNG−/− mice. The experiment in a line: B cell divisions by CFSE dilution after DidB treatment. Conditions: Ung-deficient vs wt B cells. On the procedure:
as §1, §2

As to `CC[C@H](C)[C@H]1NC(=O)[C@@H](NC(=O)[C@@H](CC(C)C)N(C)C(=O)[C@@H]2CCCN2C(=O)C(C)O)[C@@H](C)OC(=O)[C@H](Cc2ccc(OC)cc2)N(C)C(=O)[C@@H]2CCCN2C(=O)[C@H](CC(C)C)NC(=O)[C@@H](C)C(=O)[C@H](C(C)C)OC(=O)C[C@@H]1O` (stereo partly shown) [DidB, didemnin B], in series [1], the “sensitivity to DidB (toxicity, % difference of GFP+ cells vs DMSO)” value is on record as “substantially more sensitive”. Also, in series [2], the B cell expansion result is listed as “further diminishes expansion in Ung-deficient B cells”. Further, the “sensitivity to DidB treatment (cell divisions, CFSE)” value in series [3] (24 h post-treatment) is “more sentitive”. Besides, the inhibition of proliferation result in series [3] (dose-dependent, CFSE dilution 24 h post-treatment) is “more marked in Ung-deficient B cells than wt B cells”.
